The values below come from patent US11046670B2, “Piperazinyl norbenzomorphan compounds and methods for using the same” (priority 2015, dated 2021).

Where two headings read alike, the source gives them in different places.

Series [1] addresses T1, sigma 2 receptor (Rattus norvegicus (Rat), UniProt Q5U3Y7). The settings on record: for Ki: read-out: σ2 Ki; for Ki(σ1)/Ki(σ2): selectivity σ2 over σ1.
Procedure: (§1) Sigma-2 receptor ligands and their binding assays. […] The compounds were dissolved in 100% DMSO prior to the receptor binding assays, which were performed by the Psychoactive Drug Screening Program (PDSP) at Chapel Hill, N.C. […] Briefly, Sig2Rs were sourced from rat liver homogenates (PC12 cells). The Sig2R ligand binding affinity was determined through competition binding assays using the radioligand [^3H]-ditolylguanidine in the presence of (+)-pentazocine to block Sig1R binding sites. The radioactivity in the presence of the test compound is calculated with the following equation and expressed as a percent inhibition: % inhibition=(sample CPM non-specific CPM)/(Total CPM non-specific CPM)×100 where
(§2) CPM stands for counts per minute. To determine secondary binding data, CPM/well are pooled and fitted to a three parameter logistic function for competition binding in Prism v 5.0 to determine IC50 values, which are converted to K, according to the Cheng-Prusoff equation.
(§3) Receptor binding assays were performed by the Psychoactive Drug Screening Program (PDSP) at Chapel Hill, N.C. […] Briefly, Sig1Rs and Sig2Rs were sourced from homogenates of Guinea pig brains and rat livers, respectively. Assessment of Sig1R binding affinity was determined via competition binding assays with the radioligand [3H]-(+)-pentazocine. Sig2R binding affinity was determined through competition binding assays using the radioligand [3H]-ditolylguanidine in the presence of (+)-pentazocine to block Sig1R binding sites. […] The radioactivity in the presence of the test compound is calculated with the following equation and expressed as a percent inhibition: % inhibition=(sample CPM non-specific CPM)/Total CPM−non-specific CPM)×100. The normalization process is carried out in Prism or Excel. To determine secondary binding results, CPM/well are pooled and fitted to a three parameter logistic function for competition binding in Prism v 5.0 to determine IC50 values, which are converted to Ki according to the Cheng-Prusoff equation.
Series [2] deals with T2, sigma 1 receptor (Cavia porcellus (Guinea pig), UniProt Q60492). Kind of series: biochemical. The settings on record: for inhibition at 10 µM: read-out: σ1 inhibition of radioligand binding.
T2 sequence (Q60492 whole entry): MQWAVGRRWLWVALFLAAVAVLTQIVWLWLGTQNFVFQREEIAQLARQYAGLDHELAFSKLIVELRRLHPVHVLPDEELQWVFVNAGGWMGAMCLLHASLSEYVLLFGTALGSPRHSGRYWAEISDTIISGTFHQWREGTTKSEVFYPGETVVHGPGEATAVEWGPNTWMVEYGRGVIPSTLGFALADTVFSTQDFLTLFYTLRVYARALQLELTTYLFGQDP
Procedure: as §3
Series [3] has as its target T1, sigma 2 receptor. As to the kind of experiment: biochemical. The settings on record: for inhibition at 10 µM: read-out: σ2 inhibition of radioligand binding.
Procedure: as §1, §2, §3
Series [4] has as its target T2, sigma 1 receptor. Conditions: for Ki: read-out: σ1 Ki.
Procedure: as §3
Series [5] has as its system Wild-type mice (C57BL/6) subjected to Blast (brain injury). Kind of series: Traumatic Brain Injury, Barnes Maze after blast. It counts as in vivo. Conditions: seven days of daily treatment beginning the day after injury, compared to Veh. From the text:
FIG. 9 Traumatic Brain Injury treatment; Barnes Maze (spatial and long term memory) after blast; Wild-type mice (C57BL/6) were subjected to either a Blast (brain injury) or Sham blast (no brain injury).

Series [6] shares this test system. Kind of series: Traumatic Brain Injury, Morris Water Maze after blast. Conditions: seven days of daily treatment beginning the day after injury, compared to Veh. It counts as in vivo. The text has this: FIG. 10 Traumatic Brain Injury treatment; Morris Water Maze (spatial and long term memory) after blast; Wild-type mice (C57BL/6) were subjected to either a Blast (brain injury) or Sham blast (no brain injury).

For series [7], the system named is Murine hippocampal neuron slices. As to the kind of experiment: Synaptic long term depression in hippocampal neuron slices. From the text:
FIG. 13 Effect of SAS-0132 on Synaptic Long Term Depression (inhibition); effect of SAS-0132 on dihydroxyphenylglycine (DHPG) mediated increase in long term depression (LTD).

The subject of series [8] is neuroblastoma cells. Kind of series: MTT Assay in Neuroblastoma Cells.
Procedure: FIG. 15 MTT Assay in Neuroblastoma Cells; Sigma 2 receptor binding ligands were evaluated for effects in neuroblastoma cells.
FIG. 16 MTT Assay in Neuroblastoma Cells; Sigma 2 receptor binding ligands were evaluated for effects in neuroblastoma cells.
Series [9] concerns neuroblastoma cells. Kind of series: Calcium ion levels in neuroblastoma cells. It counts as cell-based.
For series [10], the system named is proinflammatory cytokines (IL-1β, TNFα, CD14). As to the kind of experiment: Brain levels of proinflammatory cytokines in transgenic mice. It counts as in vivo. The settings on record: Thy1-APPLond/Swe+ mice, 60 days of treatment (30 mg/kg).
The next series deals with σ2R (Homo sapiens (Human), UniProt Q5BJF2). Conditions: cited from earlier work.
Chain of σ2R (Q5BJF2 whole entry): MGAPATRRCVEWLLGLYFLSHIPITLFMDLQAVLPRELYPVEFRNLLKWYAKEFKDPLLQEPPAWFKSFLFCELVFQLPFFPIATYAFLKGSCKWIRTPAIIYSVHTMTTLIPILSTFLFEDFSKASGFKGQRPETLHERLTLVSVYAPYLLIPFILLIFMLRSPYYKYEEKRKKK

T1 sequence (Q5U3Y7 whole entry): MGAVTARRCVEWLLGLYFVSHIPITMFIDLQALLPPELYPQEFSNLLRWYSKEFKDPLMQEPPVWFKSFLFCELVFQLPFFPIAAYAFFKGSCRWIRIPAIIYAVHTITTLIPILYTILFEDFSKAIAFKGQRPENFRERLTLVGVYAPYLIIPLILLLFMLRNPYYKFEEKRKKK

By Ki is commonly meant a dissociation constant, usually derived from enzyme kinetics or from competition with a known ligand. As to `CCCOC(=O)CCN1CCN(c2ccc3c(c2)[C@H]2C[C@H]3CCN2C(=O)OCc2ccccc2)CC1`, the Ki at sigma 2 receptor [1] turned out to be 58 nM.
`CN1CCN(c2ccc3c(c2)C2CC3CCN2C(=O)C2CCCCC2)CC1` (racemic) [(±)-TH-1-106, (±)-Cyclohexyl(8-(4-methylpiperazin-1-yl)-1,3,4,5-tetrahydro-2H-1,5-methanobenzo[c]azepin-2-yl)methanone]: the Ki at sigma 1 receptor [2] (σ1 Ki (nM)) is 1420 nM; at sigma 2 receptor [3], 144 nM.
For orientation: inhibition means the share of the control response that was lost under treatment. As to `O=C(OCc1ccccc1)N1CC[C@@H]2C[C@@H]1c1cc(Cl)ccc12` [Compound 12], the inhibition at 10 µM on sigma 1 receptor [2] and on sigma 2 receptor [3] was below 50% throughout.
On to `O=C(OCc1ccccc1)N1CC[C@@H]2C[C@@H]1c1cc(N3CCOCC3)ccc12` [Compound 16], for which the inhibition at 10 µM at sigma 1 receptor [2] and at sigma 2 receptor [3] was below 50% in each case. Moreover, on sigma 2 receptor [1], the “sigma receptor binding (in words)” value is given as “did not bind”.
As for `c1ccc(CN2CC[C@@H]3C[C@@H]2c2cc(N4CCCCC4)ccc23)cc1` [Compound 19], at sigma 2 receptor [1], the “preference / selectivity for σ2R relative to σ1R” value is on record as “about 8 fold”, the “σ2 pKi ± SEM” value was 6.5 ± 0.1, the Ki was determined as 318 nM and the “Ki(σ1)/Ki(σ2)” value is listed as 8. For the same compound, at sigma 1 receptor [4], the “σ1 pKi ± SEM” value was 5.61 ± 0.06 and the Ki was determined as 2430 nM.
For `C=CCCN1CCN(c2ccc3c(c2)[C@H]2C[C@H]3CCN2C(=O)OCc2ccccc2)CC1` [Compound 29], at sigma 2 receptor [1], the “σ2 pKi ± SEM” value turned out to be 7.79 ± 0.05, the Ki stood at 16 nM and the “Ki(σ1)/Ki(σ2)” value came out at 11. In addition, at sigma 1 receptor [4], the “σ1 pKi ± SEM” value was determined as 6.76 ± 0.05 and the Ki came to 172 nM.
Take `CC(C)=CCN1CCN(c2ccc3c(c2)[C@H]2C[C@H]3CCN2C(=O)OCc2ccccc2)CC1` [Compound 30]: at sigma 2 receptor [1], the “σ2 pKi ± SEM” value is 7.64 ± 0.07, the Ki was 23 nM and the “Ki(σ1)/Ki(σ2)” value worked out at 3. In addition, on sigma 1 receptor [4], the “σ1 pKi ± SEM” value stood at 7.21 ± 0.05 and the Ki turned out to be 62 nM.
Consider `CN1CCN(c2ccc3c(c2)[C@H]2C[C@H]3CCN2)CC1` [Compound 33], for which the inhibition at 10 µM at sigma 2 receptor [3] was below 50%.
Take `CN1CCN(c2ccc3c(c2)[C@H]2C[C@H]3CCN2S(=O)(=O)c2ccccc2)CC1` [Compound 35]: at sigma 1 receptor [2], the inhibition at 10 µM was below 50%. In addition, at sigma 2 receptor [1], the “σ2 pKi ± SEM” value amounted to 6.12 ± 0.07 and the Ki turned out to be 764 nM.
Consider `CN1CCN(c2ccc3c(c2)[C@H]2C[C@H]3CCN2C(=O)CCc2ccccc2)CC1` [Compound 36], for which, at sigma 2 receptor [1], the “σ2 pKi ± SEM” value is recorded as 6.45 ± 0.06, the Ki was found to be 357 nM and the “Ki(σ1)/Ki(σ2)” value is given as 1. Besides, on sigma 1 receptor [4], the “σ1 pKi ± SEM” value came to 6.53 ± 0.08 and the Ki was 294 nM.
Turning to `C=CCOC(=O)N1CC[C@@H]2C[C@@H]1c1cc(N3CCN(C)CC3)ccc12` [Compound 37], on sigma 2 receptor [1], the “σ2 pKi ± SEM” value came out at 6.37 ± 0.07, the Ki came to 442 nM and the “Ki(σ1)/Ki(σ2)” value amounted to 5. Moreover, on sigma 1 receptor [4], the “σ1 pKi ± SEM” value is reported as 5.68 ± 0.07 and the Ki is 2100 nM.
Regarding `Clc1cccc(CN2CC[C@@H]3C[C@@H]2c2cc(N4CCCCC4)ccc23)c1` [Compound 38], the Ki at sigma 1 receptor [2] (σ1 pKi ± SEM) is 3160 nM; at sigma 2 receptor [3] it was 794 nM; at sigma 2 receptor [1], 746 nM; at sigma 1 receptor [4], 3520 nM. Besides, the “Ki(σ1)/Ki(σ2)” value on sigma 2 receptor [1] was 5.
`Clc1cc(Cl)cc(CN2CC[C@@H]3C[C@@H]2c2cc(N4CCOCC4)ccc23)c1` [Compound 39] had a Ki on sigma 2 receptor [3] of 100 nM. Further, at sigma 2 receptor [1], the “preference / selectivity for σ2R relative to σ1R” value is reported as 32 fold, the Ki was found to be 92 nM and the “Ki(σ1)/Ki(σ2)” value came to 32. Further, at sigma 1 receptor [4], the “σ1 pKi ± SEM” value is listed as 5.53 ± 0.09 and the Ki is 2980 nM.
Consider `Fc1ccccc1CN1CC[C@@H]2C[C@@H]1c1cc(N3CCOCC3)ccc12` [Compound 40], for which, at sigma 2 receptor [1], the “preference / selectivity for σ2R relative to σ1R” value is listed as 4 fold, the “σ2 pKi ± SEM” value is 5.9 ± 0.1, the Ki was found to be 1260 nM and the “Ki(σ1)/Ki(σ2)” value was 4. Also, at sigma 1 receptor [4], the “σ1 pKi ± SEM” value worked out at 5.34 ± 0.09 and the Ki is 4540 nM.
Turning to `CN1CC[C@@H]2C[C@@H]1c1cc(-c3ccc(C(F)(F)F)cc3)ccc12` [Compound 41], at sigma 2 receptor [1], the “σ2 pKi ± SEM” value is on record as 7.36 ± 0.08, the Ki worked out at 43 nM and the “Ki(σ1)/Ki(σ2)” value stood at 4. Also, at sigma 1 receptor [4], the “σ1 pKi ± SEM” value worked out at 6.81 ± 0.09 and the Ki is 156 nM.
The compound `FC(F)(F)c1ccc(-c2ccc3c(c2)[C@H]2C[C@H]3CCN2CCc2ccccc2)cc1` [Compound 42] gave a Ki on sigma 1 receptor [2] (σ1 pKi ± SEM) of 1000 nM. Besides, on sigma 2 receptor [1], the “σ2 pKi ± SEM” value turned out to be 6.8 ± 0.1, the Ki came to 166 nM and the “Ki(σ1)/Ki(σ2)” value is reported as 6. For the same compound, the Ki on sigma 1 receptor [4] was 1060 nM.
As to `Cc1cccc(-c2ccc3c(c2)[C@H]2C[C@H]3CCN2C)c1` [Compound 43], on sigma 2 receptor [1], the “σ2 pKi ± SEM” value came to 6.88 ± 0.07, the Ki is 133 nM and the “Ki(σ1)/Ki(σ2)” value is on record as 3. At sigma 1 receptor [4], the “σ1 pKi ± SEM” value turned out to be 6.41 ± 0.08 and the Ki is 391 nM.
With `Cc1cccc(-c2ccc3c(c2)[C@H]2C[C@H]3CCN2Cc2ccc3c(c2)OCO3)c1` [Compound 44], the Ki turned out to be 4610 nM on sigma 1 receptor [2] (σ1 Ki (nM)), 4570 nM at sigma 1 receptor [2] (σ1 pKi ± SEM) and 828 nM at sigma 2 receptor [3]. The “Ki(σ1)/Ki(σ2)” value on sigma 2 receptor [1] stood at 6.
Turning to `CCCN1CCN(c2ccc3c(c2)C2CC3CCN2C(=O)OCc2ccccc2)CC1` (centres unmarked) [DKR-1516], the “spatial- and long term memory, Barnes Maze” value in series [5] is on record as “performed significantly better”. For the same compound, the “spatial- and long term memory, Morris Water Maze” value in [6] is on record as “performed significantly better”.
Take `CN1CCN(c2ccc3c(c2)[C@H]2C[C@@H]3CCN2C(=O)OCc2ccccc2)CC1` [SAS-0132]: the “DHPG-mediated increase in LTD” value in series [7] is on record as “blocked”. Further, in the series on neuroblastoma cells [8], the “concentration at which cytotoxicity begins” value was “around 30 microM” and the “toxicity in MTT assay (in words)” value is recorded as “not toxic at low doses”. Further, in the series on neuroblastoma cells [9], the DKR-1051-induced calcium response result is “concentration-dependent attenuation”. Also, the “intracellular Ca2+ concentration” value in the series on neuroblastoma cells [9] (concentrations up to 30 μM) is “does not induce significant increases”. In addition, the “spatial- and long term memory, Barnes Maze” value in [5] was “performed significantly better”. In [10], the “brain levels of CD14” value is reported as “not statistically significant”, the “brain levels of IL-1β” value was “significant reduction” and the “brain levels of TNFα” value is listed as “not statistically significant”.
For the compound `OCCN1CCN(CCCN2c3ccccc3C=Cc3ccccc32)CC1` [opipramol], the “affinity for σ2R” value at σ2R is “appreciable affinity”.
